The text below walks through data of publication PMC11251182, “Tubular insulin-induced gene 1 deficiency promotes NAD^+ consumption and exacerbates kidney fibrosis” (EMBO Molecular Medicine, 2024).

The target in this assay is T1, human recombinant Aldh1a1 (hAldh1a1) (Homo sapiens, UniProt P00352).
T1 construct: recombinant human Aldh1a1 protein (Novoprotein, CF44)
T1 sequence (P00352 2-501): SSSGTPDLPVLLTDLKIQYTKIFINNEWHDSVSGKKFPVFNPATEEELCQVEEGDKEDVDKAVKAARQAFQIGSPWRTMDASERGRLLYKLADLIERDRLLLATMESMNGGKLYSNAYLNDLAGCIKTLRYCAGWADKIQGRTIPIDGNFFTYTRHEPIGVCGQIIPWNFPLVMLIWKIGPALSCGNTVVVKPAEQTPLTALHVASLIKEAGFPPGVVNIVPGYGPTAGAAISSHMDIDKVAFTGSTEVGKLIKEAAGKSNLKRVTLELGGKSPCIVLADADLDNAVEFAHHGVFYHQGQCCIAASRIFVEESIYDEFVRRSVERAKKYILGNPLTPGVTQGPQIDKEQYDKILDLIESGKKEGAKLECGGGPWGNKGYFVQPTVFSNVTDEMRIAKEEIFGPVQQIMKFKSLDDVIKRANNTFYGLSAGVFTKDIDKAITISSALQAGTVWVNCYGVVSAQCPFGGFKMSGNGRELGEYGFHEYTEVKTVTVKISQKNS
The assay can be described thus: SPR (Biacore T200, CM5 chip, amine coupling); also inhibited the recombinant enzyme's activity at […]. The format is binding. (SPR reads the build-up and loss of mass on a sensor chip optically.)

With `COC(=O)C1=C(C)NC(C)=C(C(=O)OCCN(C)Cc2ccccc2)C1c1cccc([N+](=O)[O-])c1` (stereo not shown) [13-F9, nicardipine], the Kd (usually a measure of binding affinity in units of concentration) was found to be 1980 nM.
